The results in this text go back to patent US10189805B2, “Metabolism probes for therapy and diagnosis” (Vanderbilt University, priority 2014, dated 2019).

This experiment deals with ASCT2 (Homo sapiens (Human), UniProt Q15758). Put plainly: 3H-glutamine uptake inhibition in live HEK-293 cells. The experiment is classed as cell-based. The settings on record: for IC50: inhibition of 3H-glutamine (500 nM) uptake, HEK293 cells, 15 min at 37° C., pH 6.0; for potency compared with GPNA (in words): 3H-glutamine uptake, HEK-293 cells. The text has this: Initial compound libraries focused on 2, 3, and 4 substituted Nγ-glutamylanilides with aryl, alicyclic, and heterocyclic substitutions. To evaluate the biological activity, compounds were initially screened at a single concentration for their ability to inhibit ^3H-glutamine uptake in live HEK-293 cells, an established model suitable for evaluating ASCT2 activity. […] The present inventors prioritized the 2-substitution as a determinant of ASCT2 activity among this series.
The glutamine uptake assays in HEK293 cells were carried out in 96 well plates (CulturPlate-96, Perkin Elmer). Cells were plated at a density of 35,000 cells per well 24 hours prior to carrying out the assay. Each set of conditions is carried out in triplicate. The wells are washed three times with 100 uL of assay buffer at pH 6.0 (containing 137 mM NaCl, 5.1 mM KCl, 0.77 mM KH2PO4, 0.71 mM MgSO4.7H2O, 1.1 mM CaCl2, 10 mM D-glucose, and 10 mM HEPES). […] (500 nM) in the same buffer is added along with inhibitor and allowed to incubate for 15 min at 37° C. Following incubation, the H-glutamine/inhibitor is removed and the cells are washed three times with buffer. The cells are then lysed by the addition of 50 uL 1M NaOH. 150 uL of scintillation fluid (Microscint 40, Perkin Elmer) is added and the plates are counted on a scintillation counter (Topcount, Perkin Elmer).

Chain of ASCT2 (Q15758 whole entry): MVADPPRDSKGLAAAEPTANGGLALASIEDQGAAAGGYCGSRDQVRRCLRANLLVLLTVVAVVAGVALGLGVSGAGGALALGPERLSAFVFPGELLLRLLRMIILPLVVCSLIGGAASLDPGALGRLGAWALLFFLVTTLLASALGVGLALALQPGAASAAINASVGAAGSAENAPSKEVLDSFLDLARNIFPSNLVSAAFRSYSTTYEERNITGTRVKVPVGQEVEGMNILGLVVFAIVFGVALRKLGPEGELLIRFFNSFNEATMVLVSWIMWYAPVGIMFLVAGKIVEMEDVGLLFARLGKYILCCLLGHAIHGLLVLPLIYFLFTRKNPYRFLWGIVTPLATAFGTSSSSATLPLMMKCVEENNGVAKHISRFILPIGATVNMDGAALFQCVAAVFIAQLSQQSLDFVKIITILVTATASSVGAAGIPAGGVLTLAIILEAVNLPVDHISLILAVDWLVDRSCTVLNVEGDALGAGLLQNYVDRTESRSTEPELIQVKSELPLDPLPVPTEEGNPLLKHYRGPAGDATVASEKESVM

With `N[C@@H](CCC(=O)Nc1ccc([N+](=O)[O-])cc1)C(=O)O` [Compound 1, L-γ-glutamyl-p-nitroanilide, reference compound], the IC50 was determined as 954 µM.
Regarding `N[C@@H](CCC(=O)Nc1ccccc1-c1nc2ccccc2s1)C(=O)O` [Compound 4, N^5-(2-(benzo[d]thiazol-2-yl)phenyl)-L-glutamine], the “potency compared with GPNA (in words)” value is given as “significantly greater potency than GPNA” and inhibition was half-maximal at 436 µM (IC50).
In turn, `N[C@@H](CCC(=O)Nc1ccccc1N1CCCCC1)C(=O)O` [Compound 12] had an IC50 of 776 µM.
Still for that read-out and setting: for `N[C@@H](CCC(=O)Nc1ccccc1CCc1ccncc1)C(=O)O` [Compound 16] the value was 832 µM; for `N[C@@H](CCC(=O)NCc1ccccc1CS(=O)(=O)N1CCOCC1)C(=O)O` [Compound 19], 677 µM.
With `CN1CCN(Cc2ccccc2CNC(=O)CC[C@H](N)C(=O)O)CC1` [Compound 20, N5-(2-((4-methylpiperazin-1-yl)methyl)benzyl)-L-glutamine], the “potency compared with GPNA (in words)” value is “significantly greater potency than GPNA” and it took 697 µM to reach half-maximal inhibition (IC50).

One may read the IC50 as the concentration needed to halve the response being measured.
